For eleven compounds, IC50 results are on record in patent US11168073B2, “3,3-difluoroallylamines or salts thereof and pharmaceutical compositions comprising the same” (YUHAN CORPORATION, priority 2018, dated 2021).

Holding throughout (format): biochemical
Assay [1] has as its target T1, recombinant human DAO (diamine oxidase) (Homo sapiens, UniProt P19801).
T1 construct: purchased R&D systems
T1 sequence (P19801 20-751): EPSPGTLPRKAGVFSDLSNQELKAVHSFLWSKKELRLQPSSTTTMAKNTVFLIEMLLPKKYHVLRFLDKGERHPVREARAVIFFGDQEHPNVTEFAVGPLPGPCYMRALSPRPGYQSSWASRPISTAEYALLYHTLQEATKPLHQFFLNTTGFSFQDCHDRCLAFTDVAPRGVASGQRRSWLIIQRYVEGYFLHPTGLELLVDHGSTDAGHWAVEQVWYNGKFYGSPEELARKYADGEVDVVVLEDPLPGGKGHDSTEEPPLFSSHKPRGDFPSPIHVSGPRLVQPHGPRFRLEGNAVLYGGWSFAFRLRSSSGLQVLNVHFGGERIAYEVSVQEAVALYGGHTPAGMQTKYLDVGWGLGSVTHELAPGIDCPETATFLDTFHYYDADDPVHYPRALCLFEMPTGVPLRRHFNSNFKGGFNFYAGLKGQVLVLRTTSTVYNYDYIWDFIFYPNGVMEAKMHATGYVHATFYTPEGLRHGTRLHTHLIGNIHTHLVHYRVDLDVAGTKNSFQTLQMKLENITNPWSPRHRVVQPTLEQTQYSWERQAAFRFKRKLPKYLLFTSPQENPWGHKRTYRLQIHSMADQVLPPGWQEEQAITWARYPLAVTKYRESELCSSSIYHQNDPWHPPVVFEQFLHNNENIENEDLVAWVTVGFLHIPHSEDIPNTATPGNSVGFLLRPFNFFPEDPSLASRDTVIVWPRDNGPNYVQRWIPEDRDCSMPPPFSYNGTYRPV
Description: Activity evaluation on recombinant human DAO (Amplex Red/HRP-coupled assay, 1 mM putrescine substrate). The settings on record: read-out: Inhibitory Activity (IC50, nM) DAO. A digest of the protocol: (§1)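 Enzyme activity was measured as fluorescence rate (ex 544, em 590 nm) from resorufin formed by HRP-coupled H2O2 oxidation of 200 uM Amplex Red. Compounds were first incubated 30 min at 37 °C with enzyme at pH 7.4; substrates were 0.5 mM tyramine (MAO-A), 1 mM benzylamine (MAO-B) and 1 mM putrescine (DAO).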

The target of assay [2] is T2, recombinant human MAO-B (monoamine oxidase-B) (Homo sapiens, UniProt P27338).
T2 construct: purchased Sigma-Aldrich
T2 sequence (P27338 1-520): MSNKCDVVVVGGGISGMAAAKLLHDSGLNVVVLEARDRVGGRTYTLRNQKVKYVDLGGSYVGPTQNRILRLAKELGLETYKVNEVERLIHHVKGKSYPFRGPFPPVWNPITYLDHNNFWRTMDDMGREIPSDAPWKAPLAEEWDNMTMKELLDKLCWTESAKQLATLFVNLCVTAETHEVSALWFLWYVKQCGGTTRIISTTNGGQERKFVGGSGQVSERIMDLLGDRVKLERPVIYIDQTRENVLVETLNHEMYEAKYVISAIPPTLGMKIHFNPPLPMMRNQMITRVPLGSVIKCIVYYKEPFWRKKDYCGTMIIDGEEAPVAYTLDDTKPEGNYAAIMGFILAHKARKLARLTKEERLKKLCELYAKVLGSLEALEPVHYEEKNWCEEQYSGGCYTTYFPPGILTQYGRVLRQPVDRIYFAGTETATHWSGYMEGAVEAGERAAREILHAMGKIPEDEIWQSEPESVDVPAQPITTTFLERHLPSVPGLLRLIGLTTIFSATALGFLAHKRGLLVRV
Description: Activity evaluation on recombinant human MAO-B (Amplex Red/HRP-coupled assay, 1 mM benzylamine substrate). The settings on record: read-out: Inhibitory Activity (IC50, nM) MAO-B. In outline: as §1

Assay [3] has as its target T3, recombinant human VAP-1 (Homo sapiens, UniProt Q16853).
T3 construct: purchased R&D systems
T3 sequence (Q16853 1-763): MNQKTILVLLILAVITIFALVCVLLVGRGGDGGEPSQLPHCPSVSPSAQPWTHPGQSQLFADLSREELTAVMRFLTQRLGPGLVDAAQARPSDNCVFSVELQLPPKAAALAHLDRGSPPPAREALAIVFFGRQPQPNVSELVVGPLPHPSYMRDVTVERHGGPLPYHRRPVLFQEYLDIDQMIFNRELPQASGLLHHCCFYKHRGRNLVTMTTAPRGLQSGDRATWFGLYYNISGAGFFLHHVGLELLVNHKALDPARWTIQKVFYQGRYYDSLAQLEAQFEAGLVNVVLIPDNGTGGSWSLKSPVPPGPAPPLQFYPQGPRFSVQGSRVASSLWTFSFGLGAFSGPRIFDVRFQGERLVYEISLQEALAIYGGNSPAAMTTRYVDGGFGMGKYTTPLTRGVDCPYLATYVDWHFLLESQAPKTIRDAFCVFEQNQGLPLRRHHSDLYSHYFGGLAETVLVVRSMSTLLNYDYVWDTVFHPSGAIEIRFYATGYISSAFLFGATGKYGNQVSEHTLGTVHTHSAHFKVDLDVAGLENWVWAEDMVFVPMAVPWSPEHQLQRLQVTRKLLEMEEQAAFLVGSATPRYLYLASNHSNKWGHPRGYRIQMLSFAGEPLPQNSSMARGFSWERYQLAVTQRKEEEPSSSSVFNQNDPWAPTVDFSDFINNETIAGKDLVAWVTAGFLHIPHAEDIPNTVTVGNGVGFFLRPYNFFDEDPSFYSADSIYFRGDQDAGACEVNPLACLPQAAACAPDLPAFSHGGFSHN
Description: Activity evaluation on recombinant human VAP-1 (Amplex Red/HRP-coupled hydrogen peroxide assay, benzylamine substrate). The settings on record: read-out: Inhibitory Activity (IC50, nM) human VAP-1. A digest of the protocol: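 Recombinant human VAP-1 in 50 mM sodium phosphate pH 7.4 preincubated 30 min at 37 °C with compound (8-point 1:3 series, <1% DMSO), then 1 mM benzylamine, 200 uM Amplex Red, 1 U/mL HRP added. H2O2-derived resorufin fluorescence (ex 544/em 590) followed 1–2 h; IC50 from four-parameter fit of rate inhibition.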

Assay [4] has as its target T4, recombinant human MAO-A (monoamine oxidase-A) (Homo sapiens, UniProt P21397).
T4 construct: purchased Sigma-Aldrich
T4 sequence (P21397 1-527): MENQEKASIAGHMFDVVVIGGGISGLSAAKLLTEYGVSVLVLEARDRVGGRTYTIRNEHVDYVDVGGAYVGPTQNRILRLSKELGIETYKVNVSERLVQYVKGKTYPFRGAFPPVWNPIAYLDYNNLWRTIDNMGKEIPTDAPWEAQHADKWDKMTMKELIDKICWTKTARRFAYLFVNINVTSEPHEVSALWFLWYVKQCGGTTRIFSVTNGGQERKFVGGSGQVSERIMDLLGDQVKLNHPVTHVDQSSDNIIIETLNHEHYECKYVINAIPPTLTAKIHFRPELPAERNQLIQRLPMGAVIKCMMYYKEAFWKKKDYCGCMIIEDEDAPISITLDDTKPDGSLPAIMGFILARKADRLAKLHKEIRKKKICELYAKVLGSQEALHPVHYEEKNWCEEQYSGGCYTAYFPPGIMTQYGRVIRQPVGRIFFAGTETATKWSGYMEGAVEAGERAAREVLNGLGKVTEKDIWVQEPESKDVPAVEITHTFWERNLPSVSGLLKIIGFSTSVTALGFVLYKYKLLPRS
The assay can be described thus: Activity evaluation on recombinant human MAO-A (Amplex Red/HRP-coupled assay, 0.5 mM tyramine substrate). The note with it: read-out: Inhibitory Activity (IC50, nM) MAO-A. A digest of the protocol: as §1

[5] abbreviates: recombinant human VAP-1, 30 min preincubation at 37° C., 1 mM benzylamine.
Where [6] appears, read: recombinant human VAP-1, benzylamine substrate.

SMILES strings stand for the structures. Structures can show the parent of a compound that is named as a salt. Where two headings read alike, the source gives them in different places.

Regarding `Cc1cc(-n2cnn(CC(CN)=C(F)F)c2=O)cnc1-c1cc(C)c2c(c1)CCC(=O)N2` [Example 80, 6-[5-[1-[2-(aminomethyl)-3,3-difluoro-allyl]-5-oxo-1,2,4-triazol-4-yl]-3-methyl-2-pyridyl]-8-methyl-3,4-dihydro-1H-quinolin-2-one Trifluoroacetate], the IC50 – broadly, the point on the concentration scale where inhibition reaches its midpoint – in assay [1] (1 mM putrescine) is 36 nM; in assay [2] (1 mM benzylamine), 5300 nM; in assay [3] (setting [5]) it was 0.4 nM; in assay [4] (0.5 mM tyramine) it was more than 100000 nM.
For the compound `NCC(Cn1ncn(Cc2ccc(-c3cccc(N4CCNCC4)c3)s2)c1=O)=C(F)F` [Example 107, 2-[2-(aminomethyl)-3,3-difluoro-allyl]-4-[[5-(3-piperazin-1-ylphenyl)-2-thienyl]methyl]-1,2,4-triazol-3-one Ditrifluoroacetate], the half-maximal inhibitory concentration (IC50) in assay [1] (1 mM putrescine) was 12000 nM; in assay [2] (1 mM benzylamine), 46000 nM; in assay [3] (setting [5]), 3.5 nM; in assay [4] (0.5 mM tyramine) it was more than 100000 nM.
`CCn1cc(-c2ccc(-n3cnn(CC(CN)=C(F)F)c3=O)cn2)cn1` [Example 45, 2-[2-(aminomethyl)-3,3-difluoro-allyl]-4-[6-(1-ethylpyrazol-4-yl)-3-pyridyl]-1,2,4-triazol-3-one Trifluoroacetate]: the IC50 in assay [1] (1 mM putrescine) was 200 nM; in assay [2] (1 mM benzylamine), 410 nM; in assay [3] (setting [5]) it was 0.2 nM; in assay [4] (0.5 mM tyramine) it was more than 100000 nM.
Regarding `CS(=O)(=O)n1cc(-c2ccc(Cn3cnn(CC(CN)=C(F)F)c3=O)s2)cn1` [Example 293, 2-[2-(aminomethyl)-3,3-difluoro-allyl]-4-[[5-(1-methylsulfonylpyrazol-4-yl)-2-thienyl]methyl]-1,2,4-triazol-3-one Trifluoroacetate], the IC50 in assay [1] (1 mM putrescine substrate) was 25300 nM; in assay [2] (1 mM benzylamine substrate), more than 100000 nM; in assay [3] (setting [6]), 2.4 nM; in assay [4] (0.5 mM tyramine substrate) it was more than 100000 nM.
On to `CN1C(=O)CCc2cc(-c3cc(-n4cnn(CC(CN)=C(F)F)c4=O)ccn3)ccc21` [Example 66, 6-[4-[1-[2-(aminomethyl)-3,3-difluoro-allyl]-5-oxo-1,2,4-triazol-4-yl]-2-pyridyl]-1-methyl-3,4-dihydroquinolin-2-one Trifluoroacetate], for which the half-inhibitory concentration (IC50) in assay [1] (1 mM putrescine) is 250 nM; in assay [2] (1 mM benzylamine) it was 4800 nM; in assay [3] (setting [5]), 0.6 nM; in assay [4] (0.5 mM tyramine) it was more than 100000 nM.
As for `Cc1cc(C#Cc2ccc3c(c2)NCCO3)cnc1-n1cnn(CC(CN)=C(F)F)c1=O` [Example 243, 2-[2-(aminomethyl)-3,3-difluoro-allyl]-4-[5-[2-(3,4-dihydro-2H-1,4-benzoxazin-6-yl)ethynyl]-3-methyl-2-pyridyl]-1,2,4-triazol-3-one Ditrifluoroacetate], the half-inhibitory concentration (IC50) in assay [1] (1 mM putrescine substrate) turned out to be 4600 nM; in assay [2] (1 mM benzylamine substrate) it was 2200 nM; in assay [3] (setting [6]), 0.9 nM; in assay [4] (0.5 mM tyramine substrate), 32700 nM.
The like results for `CN(C)c1ccc(-c2ccc(Cn3cnn(CC(CN)=C(F)F)c3=O)cc2)cn1` [Example 267, 2-[2-(aminomethyl)-3,3-difluoro-allyl]-4-[[4-[6-(dimethylamino)-3-pyridyl]phenyl]methyl]-1,2,4-triazol-3-one Trifluoroacetate] were, in that order, more than 100000 nM, more than 100000 nM, 1.1 nM and more than 100000 nM.
`Cc1cc(-c2cc(-n3cnn(CC(CN)=C(F)F)c3=O)ccn2)cc2c1NC(=O)CC2` [Example 65, 6-[4-[1-[2-(aminomethyl)-3,3-difluoro-allyl]-5-oxo-1,2,4-triazol-4-yl]-2-pyridyl]-8-methyl-3,4-dihydro-1H-quinolin-2-one Trifluoroacetate]: the IC50 is 290 nM in assay [1] (1 mM putrescine), 12000 nM in assay [2] (1 mM benzylamine), 0.3 nM in assay [3] (setting [5]) and more than 100000 nM in assay [4] (0.5 mM tyramine).
Take `NCC(Cn1ncn(-c2cccc(-c3cccc(N4CCNCC4)c3)n2)c1=O)=C(F)F` [Example 216, 2-[2-(aminomethyl)-3,3-difluoro-allyl]-4-[6-(3-piperazin-1-ylphenyl)-2-pyridyl]-1,2,4-triazol-3-one Ditrifluoroacetate]: the half-inhibitory concentration (IC50) in assay [1] (1 mM putrescine substrate) was 63 nM; in assay [2] (1 mM benzylamine substrate), more than 100000 nM; in assay [3] (setting [6]), 1.3 nM; in assay [4] (0.5 mM tyramine substrate), more than 100000 nM.
As to `CN(C)c1ccc(-c2ccc(-n3cnn(CC(CN)=C(F)F)c3=O)c(F)c2)cn1` [Example 34, 2-[2-(aminomethyl)-3,3-difluoro-allyl]-4-[4-[6-(dimethylamino)-3-pyridyl]-2-fluoro-phenyl]-1,2,4-triazol-3-one Trifluoroacetate], the half-inhibitory concentration (IC50) was 250 nM in assay [1] (1 mM putrescine), 770 nM in assay [2] (1 mM benzylamine), 0.3 nM in assay [3] (setting [5]) and 27000 nM in assay [4] (0.5 mM tyramine).
`CCn1cc(-c2ccc(-c3csc(Cn4cnn(CC(CN)=C(F)F)c4=O)c3)cc2)cn1` [Example 288, 2-[2-(aminomethyl)-3,3-difluoro-allyl]-4-[[4-[4-(1-ethylpyrazol-4-yl)phenyl]-2-thienyl]methyl]-1,2,4-triazol-3-one Trifluoroacetate]: the IC50 in assay [1] (1 mM putrescine substrate) worked out at 3780 nM; in assay [2] (1 mM benzylamine substrate), 3230 nM; in assay [3] (setting [6]), 2.6 nM; in assay [4] (0.5 mM tyramine substrate), 2910 nM.
